Consider 13 compounds from patent US12605471B2 (The General Hospital Corporation, priority 2013, dated 2026).

In data set [1] the test system is Aβ fibril. The following applies: cited from earlier work.
The conditions of data set [2]: human, oral inhalation, high inspiratory rates; cited from earlier work.
The target of data set [3] is Aβ peptide (Homo sapiens, UniProt P05067). The experiment in a line: Aβ aggregation by thioflavin T assay. In kind it is biochemical. Here is the method:
One of the most routinely used approaches to monitor Aβ polymerization is the thioflavin T binding assay. […] Aβ peptide at 5 μM was mixed with 10 μM thioflavin T with drug at different concentrations.

Data set [4] relates to atherosclerotic plaque. The following applies: mice; cited from earlier work.
The subject of data set [5] is interleukin-6 (IL-6). The following applies: mice, stress-related coronary inflammation; cited from earlier work.
Data set [6] has as its target Aβ (1-40) peptides (Homo sapiens, UniProt P05067). The data set is described as follows: UV aggregation assay. It is filed as biochemical. On the procedure: Aβ peptide aggregation and the impact of drugs to slow or prevent Aβ aggregation was measured by a UV absorbance assay (Findeis, 1999). Aβ (1-40) peptides, at 50 μM, were mixed with 50 μM drug in assay buffer and the plate was incubated at ambient temperature on a plate reader. The UV absorbance was monitored at 540 nm over a 2-3 h period.
Polymerization of Aβ-monomer peptides into clusters of trimers and tetramers initiates the Aβ aggregation process into protofibrils and then into fibrils that form amyloid plaques.

A short description of data set [7]: Brain concentration of PIB analog TS3124. As to conditions: in vivo.
Data set [8] is described as follows: Biodistribution of F-18 cromolyn in normal mice after intravenous injection. In kind it is in vivo. As to conditions: for Tissue Distribution, blood / Tissue Distribution, brain / Tissue Distribution, heart / Tissue Distribution, liver / Tissue Distribution, lung: normal mice, i.v. tail vein. Here is the method: At 5 min, organ activity (DPG) was: heart: 1.09%, blood: 3.3%, lung: 1.90%, liver: 7.69%, and brain: 0.15%. […] The data is provided in Table 1 below and in bar graph format in FIG. 4.

Experiment in data set [9]: as above
In kind it is in vivo. As to conditions: i.v. tail vein.

Sequence of Aβ peptide (P05067 672-711 limits assumed): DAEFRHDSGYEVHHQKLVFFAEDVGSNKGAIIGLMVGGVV
Sequence of Aβ (1-40) peptides (P05067 672-711 limits assumed): as above

For `O=c1c(O)c(-c2ccc(O)c(O)c2)oc2cc(O)cc(O)c12` [Quercetin], the “Effects on Aβ fibril formation” value in data set [1] was “Inhibitory”.

For the compound `O=c1cc(-c2ccccc2)oc2cc(O)cc(O)c12` [Chrysin], the “Effects on Aβ fibril formation” value in data set [1] is given as “Enhancing”.

As for `O=C([O-])c1cc(=O)c2c(OCC(O)COc3cccc4oc(C(=O)[O-])cc(=O)c34)cccc2o1.[Na+].[Na+]` [cromolyn sodium, Disodium cromoglicate], the “inhaled drug-delivered-dose absorbed into the bloodstream” value in data set [2] is given as 10-15%. In data set [3] (Aβ peptide 5 μM, 10 μM thioflavin T, drug at nanomolar concentration, FIG. 6), the “Aβ aggregation (thioflavin T fluorescence)” value is recorded as “inhibition of Aβ aggregation”. For the same compound, the “Aβ amyloid peptide polymerization into oligomers and higher order aggregates” value in [3] (four separate in vitro assays, nanomolar concentrations) is “effectively inhibits”. The dinitrophenyl-albumin-induced plaque expansion result in [4] was “prevented”. For the same compound, the “release of interleukin-6 (IL-6)” value in data set [5] is reported as “partially inhibited”. For the same compound, the “incubation time required for 50% polymerization” value in data set [6] (Aβ 50 μM, equimolar drug, 14 minutes in the absence of drug) was 75 min. Besides, the “inhibition of the rate of Aβ polymerization” value in data set [6] (equimolar concentrations with Aβ) amounted to 7 fold.

`O=c1c(O)c(-c2cccc(O)c2)oc2cc(O)ccc12` [3,3′,7-Trihydroxyflavone]: in data set [1], the “Effects on Aβ fibril formation” value is on record as “Enhancing”.

The compound `CC(F)CNc1ccc(-c2nc3ccc(O)cc3s2)cc1` (stereo not shown) [TS3124] came in with a brain concentration in [7] of 4%.

With `O=c1c(O)c(-c2ccc(O)c(O)c2)oc2ccccc12` [3,3′,4′-Trihydroxyflavone], the “Effects on Aβ fibril formation” value in data set [1] is “Inhibitory”.

Take `O=c1c(O)c(-c2cc(O)c(O)c(O)c2)oc2cc(O)cc(O)c12` [Myricetin]: the “Effects on Aβ fibril formation” value in data set [1] is “Inhibitory”.

Regarding `O=c1c(O)c(-c2ccc(O)cc2)oc2cc(O)ccc12` [5-Deoxykaempferol], the “Effects on Aβ fibril formation” value in data set [1] is “Enhancing”.

`O=c1cc(-c2ccc(O)c(O)c2)oc2cc(O)ccc12` [3′,4′,7-Trihydroxyflavone]: in [1], the “Effects on Aβ fibril formation” value is on record as “Inhibitory”.

Regarding `O=c1c(O)c(-c2ccc(O)cc2)oc2cc(O)cc(O)c12` [Kaempferol], the “Effects on Aβ fibril formation” value in data set [1] was “Enhancing”.

Take `O=c1cc(-c2ccc(O)c(O)c2)oc2cc(O)cc(O)c12` [Luteolin]: the “Effects on Aβ fibril formation” value in data set [1] is reported as “Inhibitory”.

With Fisetin, in data set [1], the “Effects on Aβ fibril formation” value was “Inhibitory”.

Regarding `O=C(O)c1cc(=O)c2c(OCC([18F])COc3cccc4oc(C(=O)O)cc(=O)c34)cccc2o1` [F-18 Cromolyn, 5,5′-(2-[18F]fluoropropane-1,3-diyl)bis(oxy)bis(4-oxo-4H-chromene-2-carboxylic acid)], in data set [8] (mice, intravenous injection, 5, 30 or 60 minute, little or no washout, FIG. 4), the “brain uptake (accumulation)” value turned out to be 1%. Also, the “Tissue Distribution, blood” value in [8] (5 min) came out at 3.31 ± 1.37 % Dose/gram; in [8] (5 min, listed as F-18 cromolyn), 3.3 % Dose/gram; in [8] (30 min) it was 0.92 ± 0.20 % Dose/gram; in data set [8] (60 min) it was 0.44 ± 0.15 % Dose/gram. Further, the “Tissue Distribution, brain” value amounted to 0.15 ± 0.37 % Dose/gram in [8] (5 min); 0.15 % Dose/gram in [8] (5 min, listed as F-18 cromolyn); 0.04 ± 0.007 % Dose/gram in [8] (30 min); 0.03 ± 0.004 % Dose/gram in data set [9] (60 min). Besides, the “Tissue Distribution, heart” value is recorded as 1.09 ± 0.13 % Dose/gram in data set [8] (5 min); 1.09 % Dose/gram in data set [8] (5 min, listed as F-18 cromolyn); 0.32 ± 0.03 % Dose/gram in data set [8] (30 min); 0.18 ± 0.07 % Dose/gram in [8] (60 min); 0.18 % Dose/gram in data set [9] (60 min). For the same compound, the “Tissue Distribution, liver” value came out at 7.69 ± 0.41 % Dose/gram in data set [8] (5 min); 7.69 % Dose/gram in data set [8] (5 min, listed as F-18 cromolyn); 1.76 ± 0.74 % Dose/gram in data set [8] (60 min); 3.11 ± 0.36 % Dose/gram in data set [9] (30 min). Further, the “Tissue Distribution, lung” value in data set [8] (5 min) is 1.90 ± 1.04 % Dose/gram; in [8] (5 min, listed as F-18 cromolyn), 1.90 % Dose/gram; in data set [9] (30 min), 0.62 ± 0.19 % Dose/gram; in [9] (60 min), 0.29 ± 0.21 % Dose/gram.
